Test results as given in patent US12227482B2, “Compounds and compositions for the treatment of cancer” (The Regents of the University of California, priority 2016, dated 2025).

What was measured:
Type in all cases: cell-based
LOX cells = test: Cell viability (CellTiter-Glo ATP content) in LOX cells; conditions: LOX, 72 h, 72 hours treatment, cell survival by CellTiter-Glo, 2% fetal bovine serum
Summary of the method: (§1)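 Cells plated at 5,000 per well in antibiotic-free RPMI with 2% FBS, treated next day in triplicate with increasing compound doses (final DMSO 0.5%) for 72 hours. Viability read as ATP content by CellTiter-Glo luminescence; percent survival relative to vehicle control set as 100%.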

A549 cells = test: Cell viability (CellTiter-Glo ATP content) in A549 cells; conditions: Homo sapiens, A549, 72 h, 72 hours treatment, cell survival by CellTiter-Glo, 2% fetal bovine serum
Summary of the method: as §1

MelJuSo cells = test: Cell viability (CellTiter-Glo ATP content) in MelJuSo cells; conditions: Homo sapiens, MEL-JUSO, 72 hours treatment, cell survival by CellTiter-Glo, 2% fetal bovine serum
Summary of the method: as §1

SMILES | IC50 (LOX cells) [µM] | IC50 (A549 cells) [µM] | IC50 (MelJuSo cells) [µM]
CCCCC1C(c2ccc(F)cc2)=NN(c2ccccc2)C1(C)C(=O)N(CCO)Cc1ccccc1 (stereo not drawn) [Compound 78, N-benzyl-4-butyl-3-(4-fluorophenyl)-N-(2-hydroxyethyl)-5-methyl-1-phenyl-4,5-dihydro-1H-pyrazole-5-carboxamide] | > 2 | > 2 | > 2
CCCCC1C(c2ccc(F)cc2)=NN(c2ccccc2)C1(C)C(=O)NCCS(C)(=O)=O (stereo not drawn) [Compound 79, 4-butyl-3-(4-fluorophenyl)-5-methyl-N-(2-(methylsulfonyl)ethyl)-1-phenyl-4,5-dihydro-1H-pyrazole-5-carboxamide] | > 2 | > 2 | > 2
CCCCC1C(c2ccc(F)cc2)=NN(c2ccccc2)C1(C)C(=O)NCc1ccc(CN2CCOCC2)cc1 (stereo not drawn) [Compound 80, 4-butyl-3-(4-fluorophenyl)-5-methyl-N-(4-(morpholinomethyl)benzyl)-1-phenyl-4,5-dihydro-1H-pyrazole-5-carboxamide] | > 2 | > 2 | > 2
CCCCC1C(c2ccc(F)cc2)=NN(c2ccc(F)cc2F)C1(C)C(=O)NCC(=O)OC (stereo not drawn) [Compound 81, methyl 2-(4-butyl-1-(2,4-difluorophenyl)-3-(4-fluorophenyl)-5-methyl-4,5-dihydro-1H-pyrazole-5-carboxamido)acetate] | 0.5 to 1 | 0.5 to 1 | < 0.25
CCCCC1C(c2ccc(F)cc2)=NN(c2ccc(F)cc2F)C1(C)C(=O)NCC(=O)O (stereo not drawn) [Compound 82, 2-(4-butyl-1-(2,4-difluorophenyl)-3-(4-fluorophenyl)-5-methyl-4,5-dihydro-1H-pyrazole-5-carboxamido)acetic acid] | > 2 | > 2 | > 2
CCCCC1C(c2ccc(F)cc2)=NN(c2ccc(F)cc2F)C1(C)C(=O)NCCC#N (stereo not drawn) [Compound 83, 4-butyl-N-(2-cyanoethyl)-1-(2,4-difluorophenyl)-3-(4-fluorophenyl)-5-methyl-4,5-dihydro-1H-pyrazole-5-carboxamide] | 1 to 2 | 1 to 2 | 0.5 to 1
CCCCC1C(c2ccc(F)cc2)=NN(c2ccc(F)cc2F)C1(C)C(=O)NCCO (stereo not drawn) [Compound 84, 4-butyl-1-(2,4-difluorophenyl)-3-(4-fluorophenyl)-N-(2-hydroxyethyl)-5-methyl-4,5-dihydro-1H-pyrazole-5-carboxamide] | 1 to 2 | 1 to 2 | 0.5 to 1
CC(C)(CO)CCCNC(=O)C1(C)C(c2ccsc2)C(c2ccc(F)cc2)=NN1c1ccc(F)cc1F (stereo not drawn) [Compound 85, 1-(2,4-difluorophenyl)-3-(4-fluorophenyl)-N-(5-hydroxy-4,4-dimethylpentyl)-5-methyl-4-(thiophen-3-yl)-4,5-dihydro-1H-pyrazole-5-carboxamide] | < 0.25 | 0.25 to 0.5 | < 0.25
COCCNC(=O)C1(C)C(c2ccsc2)C(c2ccc(F)cc2)=NN1c1ccc(F)cc1F (stereo not drawn) [Compound 86, 1-(2,4-difluorophenyl)-3-(4-fluorophenyl)-N-(2-methoxyethyl)-5-methyl-4-(thiophen-3-yl)-4,5-dihydro-1H-pyrazole-5-carboxamide] | < 0.25 | < 0.25 | < 0.25
CCCCC1(C)C(c2ccc(F)cc2)=NN(c2ccc(F)cc2F)C1(C)C(=O)NCCCC(C)(C)CO (stereo not drawn) [Compound 87, 4-butyl-1-(2,4-difluorophenyl)-3-(4-fluorophenyl)-N-(5-hydroxy-4,4-dimethylpentyl)-4,5-dimethyl-4,5-dihydro-1H-pyrazole-5-carboxamide] | > 2 | > 2 | > 2
CCCCC1(C)C(c2ccc(F)cc2)=NN(c2ccc(F)cc2F)C1(C)C(=O)NCCOC (stereo not drawn) [Compound 88, 4-butyl-1-(2,4-difluorophenyl)-3-(4-fluorophenyl)-N-(2-methoxyethyl)-4,5-dimethyl-4,5-dihydro-1H-pyrazole-5-carboxamide] | > 2 | > 2 | > 2
CCCCC1C(c2ccc(F)cc2F)=NN(c2ccc(F)cc2F)C1(C)C(=O)NCCCC(C)(C)CO (stereo not drawn) [Compound 89, 4-butyl-1,3-bis(2,4-difluorophenyl)-N-(5-hydroxy-4,4-dimethylpentyl)-5-methyl-4,5-dihydro-1H-pyrazole-5-carboxamide] | 0.5 to 1 | 1 to 2 | 0.5 to 1
CCCCC1C(c2ccc(F)cc2F)=NN(c2ccc(F)cc2F)C1(C)C(=O)NCCOC (stereo not drawn) [Compound 90, 4-butyl-1,3-bis(2,4-difluorophenyl)-N-(2-methoxyethyl)-5-methyl-4,5-dihydro-1H-pyrazole-5-carboxamide] | 0.5 to 1 | 0.5 to 1 | < 0.25
CC(C)(CO)CCCNC(=O)C1(C)C(c2ccco2)C(c2ccc(F)cc2)=NN1c1ccc(F)cc1F (stereo not drawn) [Compound 91, 1-(2,4-difluorophenyl)-3-(4-fluorophenyl)-4-(furan-2-yl)-N-(5-hydroxy-4,4-dimethylpentyl)-5-methyl-4,5-dihydro-1H-pyrazole-5-carboxamide] | 0.25 to 0.5 | 0.25 to 0.5 | < 0.25
COCCNC(=O)C1(C)C(c2ccco2)C(c2ccc(F)cc2)=NN1c1ccc(F)cc1F (stereo not drawn) [Compound 92, 1-(2,4-difluorophenyl)-3-(4-fluorophenyl)-4-(furan-2-yl)-N-(2-methoxyethyl)-5-methyl-4,5-dihydro-1H-pyrazole-5-carboxamide] | < 0.25 | < 0.25 | < 0.25
CCCCC1C(c2c(F)cc(F)cc2F)=NN(c2ccc(F)cc2F)C1(C)C(=O)NCCCC(C)(C)CO (stereo not drawn) [Compound 97, 4-butyl-1-(2,4-difluorophenyl)-N-(5-hydroxy-4,4-dimethylpentyl)-5-methyl-3-(2,4,6-trifluorophenyl)-4,5-dihydro-1H-pyrazole-5-carboxamide] | 1 to 2 | > 2 | 0.5 to 1
CCCCC1C(c2c(F)cc(F)cc2F)=NN(c2ccc(F)cc2F)C1(C)C(=O)NCC(=O)OC (stereo not drawn) [Compound 98, methyl 2-(4-butyl-1-(2,4-difluorophenyl)-5-methyl-3-(2,4,6-trifluorophenyl)-4,5-dihydro-1H-pyrazole-5-carboxamido)acetate] | > 2 | > 2 | 0.5 to 1
Cc1ccc(C2C(c3ccc(F)cc3)=NN(c3ccc(F)cc3F)C2(C)C(=O)NCCCC(C)(C)CO)s1 (stereo not drawn) [Compound 99, 1-(2,4-difluorophenyl)-3-(4-fluorophenyl)-N-(5-hydroxy-4,4-dimethylpentyl)-5-methyl-4-(5-methylthiophen-2-yl)-4,5-dihydro-1H-pyrazole-5-carboxamide] | > 2 | > 2 | 1 to 2
COCCNC(=O)C1(C)C(c2ccc(C)s2)C(c2ccc(F)cc2)=NN1c1ccc(F)cc1F (stereo not drawn) [Compound 100, 1-(2,4-difluorophenyl)-3-(4-fluorophenyl)-N-(2-methoxyethyl)-5-methyl-4-(5-methylthiophen-2-yl)-4,5-dihydro-1H-pyrazole-5-carboxamide] | 1 to 2 | > 2 | 0.25 to 0.5
CC(C)(CO)CCCNC(=O)C1(C)C(c2ccc(Cl)s2)C(c2ccc(F)cc2)=NN1c1ccc(F)cc1F (stereo not drawn) [Compound 101, 4-(5-chlorothiophen-2-yl)-1-(2,4-difluorophenyl)-3-(4-fluorophenyl)-N-(5-hydroxy-4,4-dimethylpentyl)-5-methyl-4,5-dihydro-1H-pyrazole-5-carboxamide] | > 2 | > 2 | 0.5 to 1
COCCNC(=O)C1(C)C(c2ccc(Cl)s2)C(c2ccc(F)cc2)=NN1c1ccc(F)cc1F (stereo not drawn) [Compound 102, 4-(5-chlorothiophen-2-yl)-1-(2,4-difluorophenyl)-3-(4-fluorophenyl)-N-(2-methoxyethyl)-5-methyl-4,5-dihydro-1H-pyrazole-5-carboxamide] | 0.5 to 1 | 1 to 2 | 0.25 to 0.5
COC(=O)CNC(=O)C1(C)C(c2cccs2)C(c2ccc(F)cc2)=NN1c1ccc(F)cc1F (stereo not drawn) [Compound 103, methyl 2-(1-(2,4-difluorophenyl)-3-(4-fluorophenyl)-5-methyl-4-(thiophen-2-yl)-4,5-dihydro-1H-pyrazole-5-carboxamido)acetate] | 0.5 to 1 | 0.5 to 1 | < 0.25
CC(C)(O)CNC(=O)CNC(=O)C1(C)C(c2cccs2)C(c2ccc(F)cc2)=NN1c1ccc(F)cc1F (stereo not drawn) [Compound 104, 1-(2,4-difluorophenyl)-3-(4-fluorophenyl)-N-(2-(2-hydroxy-2-methylpropylamino)-2-oxoethyl)-5-methyl-4-(thiophen-2-yl)-4,5-dihydro-1H-pyrazole-5-carboxamide] | 1 to 2 | > 2 | 0.5 to 1
CC1(C(=O)NCC(=O)N2CCS(=O)(=O)CC2)C(c2cccs2)C(c2ccc(F)cc2)=NN1c1ccc(F)cc1F (stereo not drawn) [Compound 105, 1-(2,4-difluorophenyl)-3-(4-fluorophenyl)-5-methyl-N-(1,1-dioxo-1-thiomorpholine-2-oxoethyl)-4-(thiophen-2-yl)-4,5-dihydro-1H-pyrazole-5-carboxamide] | > 2 | > 2 | > 2
CC1(C(=O)NCC(=O)N2CCOCC2)C(c2cccs2)C(c2ccc(F)cc2)=NN1c1ccc(F)cc1F (stereo not drawn) [Compound 106, 1-(2,4-difluorophenyl)-3-(4-fluorophenyl)-5-methyl-N-(2-morpholino-2-oxoethyl)-4-(thiophen-2-yl)-4,5-dihydro-1H-pyrazole-5-carboxamide] | > 2 | > 2 | > 2
